According to patent publication US6716596B2, “Agents for replacement of NAD+/NADH system in enzymatic reactions” (The Regents of the University of California, priority 2001, dated 2004):

Experiments:
[1] = target: T1, horse liver alcohol dehydrogenase (HLADH) (Equus caballus, UniProt P00327); assay: HLADH enzymatic chiral reduction of ketones with biomimic co-factor regeneration; assay type: biochemical; conditions: for turnover frequency of chiral ketone reduction: ketone (12) reduced by HLADH with co-factor regeneration, 24 hours
T1 construct: purchased Sigma
Method: FIG. 7 presents structures of ketone substrates 12-15 used for biomimic chiral synthesis of corresponding alcohols. Conversion of the substrates 12-15 to their corresponding alcohols are expressed in % yield, and TOF in d^−1 and S-enantiomer excess (ee) are also shown for each conversion. Corresponding values obtained with NAD^+ are given in parenthesis. The S-enantiomeric excess (ee) was determined by GLC with a modified β-cyclodextrin capillary column.
(§1) [Cp*Rh(bpy)(H2O)]OTf2 (1.9 mg, 2.61×10^−3 mmol), sodium formate (17.8 mg, 261.69×10^−3 mmol), NAD^+ (8.1 mg, 11.23×10^−3 mmol) and HLADH (10 units) were placed in a 10 mL Schlenk flask, and Schlenk techniques were followed to deoxygenate the solid mixture.
(§2) Under positive argon pressure, 5 mL of potassium phosphate buffer (100 mM, pH=7.02, deoxygenated) and carbonyl substrate (83.58×10^−3 mmol, deoxygenated) were added via syringe. The reaction flask was immediately securely capped with a glass-stopper and shaken with a shaker in 30° C. water-bath. The reaction was monitored by gas chromatography (GC), equipped with a β-cyclodextrin column (Supelco, β-DEX-225), and the products were identified by comparing the retention time with the corresponding authentic chiral samples and were confirmed by GC-MS. The enantiomeric excess of the products was determined directly by their relative area in the chromatogram. The progress of the reaction was obtained by mixing the reaction aliquot with an internal standard (cyclohexanol in phosphate buffer), and then calibrating the measured relative area in the chromatogram with their corresponding response factors. The reaction was monitored for 24 hours.
The same procedure as described in section A was followed, except that NAD^+ was substituted with any one of the biomimic compounds of the invention.

[2] = water solubility of biomimics
[3] = target: T1, horse liver alcohol dehydrogenase (HLADH); assay: biomimetic reduction of norcamphor (racemic); assay type: biochemical; conditions: for exo/endo alcohols formed from norcamphor enantiomer: reaction with the biomimics of the invention
Method: Biomimic yield expressed in equivalent was 86% corresponding to NAD^+ yield of 94% under the same conditions.
as §1, §2
The procedure described in section A is equally applicable to reduction of racemic compounds such as norcamphor, seen in FIG. 8. The method requires the following modification. Due to the sublimation of norcamphor in vacuo, the addition of norcamphor was conducted under positive argon pressure, followed by the addition of phosphate buffer via syringe.

[4] = regioselective reduction of biomimics with catalyst precursor (2) and sodium formate, followed by 1H NMR; conditions: for turnover frequency (TOF) in the regioselective reduction: reduction to 1,4-dihydro derivative, NAD+ under the same conditions
Method: The relative rates, seen tabulated in FIG. 1C, were determined by observing disappearance of the pyridinium signals versus an internal standard, [(CH3)4N]OTf (tetramethylammonium triflate), during the first 2 hours, where the relative rate of 1-benzylnicotinamide triflate (1) was set to 1.0. The turnover frequencies were calculated by the formation of mmol of product/mmol of catalyst/hour. The total turnover number in 24 hours was ˜95 for all substrates that gave product. The reactions were conducted in presilylated J. Young NMR tubes and were followed by ^1H NMR.
The electronic effect of differently substituted nicotinamide substrates was determined by their relative rates. The relative rates of these compounds were determined by observing the disappearance of the pyridinium signals compared to interval standard, [(CH3)4N]OTf, during the first 2 hours, where the relative rate of compound (1a) was 1.0.
In a typical reaction, a J. Young NMR tube was charged, biomimic substrates (1a)-(1i) (1.0 mol), 2 (1% mol), and HCO2Na (1.1 mol) used as the hydride source and a Schlenk techniques were conducted to deoxygenate the solid mixture. A diluted solvent was added to these solids for compounds (1a)-(1i), the solvent was D2O-THF-d8 (1=1 0.75 mL, deoxygenated), and the NMR tube was placed in a liquid nitrogen bath. The contents were further degassed by two successive freeze-pump-thaw cycles. After thawing out the reaction mixture, the J. Young NMR tube was immediately put in a salted ice-bath and covered with aluminum foil. The reaction was then followed by ^1H NMR spectroscopy at 26° C. temperature, after a speedy thawing out.
The given relative rates and turnover frequencies were determined by decreasing integration of the corresponding pyridinium salts measured against an internal standard, (CH3)4N(OTf), during the first 2 h of the reaction. The ratios of the 1,4- and 1,6-dihydronicotinamide derivatives of compounds (1a), (1b) and (1d)-(1g) were obtained by comparison of the resonance signals with those of authentic samples, where the diagnostic signal is the resonance for —CH2Ph moiety which can be identified unambiguously in the ^1H NMR spectrum.

[5] = UV-vis kinetics of the regioselective reduction with rhodium catalyst precursor (2) and formate; conditions: for TOF / ri initial rate: 294° K, H2O at pH 6.54, substrate 1.55 × 10^−3 M; for ri initial rate: average of two runs; for initial rate, times higher than compound (1) in THF/H2O (1:1): acqueous medium, comparable concentrations
Text: The kinetics of the regioselective reduction reactions were further studied utilizing UV-vis techniques with the two biomimic compounds (1) and (6) and the results were compared to NAD^+ itself. Experimental conditions are described in Example 9.
The effect of the initial rate (ri) at low conversions to the 1,4-dihydro product (˜10%) was ascertained by varying the amount of substrate precatalyst (2) and sodium formate concentrations.
The initial rates (ri) of formation of compound (3) were obtained from plots of concentration (absorbance at 354 nm/ε) versus time at low conversions (˜10%). The values of kcat were calculated at 299° K.
Rates were obtained via UV-vis techniques and are an average of two runs.
This example describes studies producing kinetic and thermodynamic data for 1-benzylnicotinamide triflate (1a) performed in THF/H2O, 1:1, β-nicotinamide -5′-ribose methyl phosphate (6) H2O, pH=6.5, and NAD^+ performed in the regioselective reduction with [Cp*Rh(bpy)H2O)][OTf]2, 2 and in the presence of formate ion.
The kinetic experiments were carried out on a Hewlett Packard 8452A Diode Array Uv-Vis spectrophotometer, attached to a circulating water bath (VWR 1160). For experiments conducted at different temperatures, the circulating water bath, as well as the UV-vis instrument, were warmed up for at least an 1 hour before the kinic studies were initiated.
The 1-benzylnicotinamide triflate (1a) [CP*Rh(bpy)(H2O)][OTf]2 (2) and 1-benzyl-1,4 dihydronicotinamide (3) were synthesized by methods as described in Examples 2, 4 and 7. The NAD^+ and 1,4-NADH compounds were purchased from Sigma and used as received. The THF was distilled from Na and deoxygenate with N2 gas for 1 hour. Distilled water was purchased from Aldrich Chemical Co and deoxygenate prior to being used. A solution of THF/H2O (similar for 1:1 or 1:4 ratios) was used for all the kinetic experiments performed for compounds of 1-benzylnicotinamide type, unless otherwise specified. A stock solution of biomimic (1a) (0.018 M), 2 (6.23×10^−3 M), and sodium formate (0.25 M) were made for the kinetic experiments in THF/H2O (1:1).
A solution of 1-benzylnicotinamide triflate (1a), (4.29×10^−3 M) and sodium formate (0.0539) was made in a volumetric flask (10 mL) under N2 in a THF/H2O (1:1) mixture. The different concentration of biomimic (1a) and sodium formate used for the kinetic experiments are reported above.
A 3.0 mL aliquot of this solution was transferred to a thermostated UV-vis cell by using an air-free syringe, which was also purged with N2 gas. The sample was then brought to the desired temperature for 30-60 min in the UV-vis spectrophotometer thermostated cell holder. Then, 23 μL of a 6.23×10^−3 M stock solution of [CP*Rh(bpy)(H2O)^2+ (2), was added-by syringe under a positive N2 pressure, quickly mixed with the solution, and the absorbance increase at 354 nm was immediately recorded. The experiment was carried out for 2 hours and the formation of the product, 1-benzyl-1,4-dihydronicotinamide, (3) was followed, with the change in absorbance being recorded every 90 seconds. Some kinetic experiments were carried out until all the starting material was converted to product. The induced volume change was taken into account for the calculation of the turnover frequency (TOF).
The kinetic experiments for the β-nicotinamide-5′-ribose methyl phosphate (6) and natural NAD^+ were performed using the same general procedure described above. These kinetic experiments were carried out in H2O and the concentration of β-nicotinamide-5′-ribose methyl phosphate (6) or NAD^+, sodium formate, and [Cp*Rh(bpy)(H2O)]^2+ (2), were in the order of 1.50×10^−3, 0.0186 M, and 1.42×10^−5 M, respectively. The λmax for the β-nicotinamide-5′-ribose methyl phosphate, (6), and natural NAD^+ was 336 nm. In all the initial rate plots, time =0 s was removed from the plots of Concentration versus Time. The standard deviation of the ri were calculated from 2σ values.

[6] = stability observations (light, air, solvent); assay type: physicochemical

T1 sequence (P00327 2-375 limits assumed): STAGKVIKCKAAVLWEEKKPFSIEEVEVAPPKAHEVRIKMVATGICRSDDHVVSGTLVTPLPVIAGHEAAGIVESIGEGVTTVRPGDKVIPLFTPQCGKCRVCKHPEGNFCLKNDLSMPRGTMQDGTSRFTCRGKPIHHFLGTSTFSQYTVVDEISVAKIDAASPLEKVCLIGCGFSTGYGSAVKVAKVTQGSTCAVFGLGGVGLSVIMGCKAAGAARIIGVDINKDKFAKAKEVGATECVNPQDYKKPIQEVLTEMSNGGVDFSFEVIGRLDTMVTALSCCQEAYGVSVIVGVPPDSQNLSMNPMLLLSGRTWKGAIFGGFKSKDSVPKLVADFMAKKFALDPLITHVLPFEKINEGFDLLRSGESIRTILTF

Structure (SMILES) | recognition by HLADH as hydride catalyst of the chiral conversion [1] | water solubility [2] | turnover frequency of chiral ketone reduction [1] [day⁻¹] | turnover frequency (TOF) in the regioselective reduction [4] [h⁻¹] | TOF [5] [h⁻¹] | ri initial rate [5] [M/s] | initial rate, times higher than compound (1) in THF/H2O (1:1) [5] [times] | exo/endo alcohols formed from norcamphor enantiomer [3] | other results
NC(=O)C1=CN([C@@H]2O[C@H](COP(=O)(O)OP(=O)(O)OC[C@H]3O[C@@H](n4cnc5c(N)ncnc54)[C@H](O)[C@@H]3O)[C@@H](O)[C@H]2O)C=CC1 [NAD^+, β-Nicotinamide adenine dinucleotide, reference compound] |  |  | ~30 | 18 | 9 | 3.1e-08 | ~3 |  | yield of norcamphor reduction expressed in equivalent ([3]; racemic norcamphor, same conditions for NAD^+): 94%
O=C1CC2CC[C@H]1C2 (racemic) [Compound 16, norcamphor] |  |  |  |  |  |  |  | exclusively the endo alcohol | 
O=C1CC2CC[C@H]1C2 (racemic) [Compound 17, norcamphor] |  |  |  |  |  |  |  | approximately equal mixture of exo and endo alcohols | 
C=CC(=O)OCCOCCOCC(=O)[n+]1cccc(C(N)=O)c1.[Br-] [Compound 10, 1-(8-acryloyloxy-3,6-dioxaoctanoyl)-3-carbamoylpyridinium bromide] |  | both water and organic solvent soluble |  |  |  |  |  |  | 

Second part, led by results:

recognition by HLADH as hydride catalyst of the chiral conversion [1] | water solubility [2] | turnover frequency of chiral ketone reduction [1] [day⁻¹] | Structure (SMILES) | turnover frequency (TOF) in the regioselective reduction [4] [h⁻¹] | TOF [5] [h⁻¹] | ri initial rate [5] [M/s] | initial rate, times higher than compound (1) in THF/H2O (1:1) [5] [times] | exo/endo alcohols formed from norcamphor enantiomer [3] | other results
recognizes | completely water soluble |  | COP(=O)(O)OC[C@H]1O[C@@H](N2C=CCC(C(N)=O)=C2)[C@H](O)[C@@H]1O [Compound 7, β-1,4-dihydronicotinamide ribose-5′-methyl phosphate] |  |  |  |  |  | 
recognizes |  | ~30 | COP(=O)([O-])OC[C@H]1O[C@@H]([n+]2cccc(C(N)=O)c2)[C@H](O)[C@@H]1O [Compound 6, β-nicotinamide ribose-5′-methyl phosphate] | 20 | 7 | 2.82e-08 | ~3 |  | stability [6]: light-sensitive and somewhat air-sensitive; TOF, times higher than those of compounds (1a)-(1i) [4]: approximately 2.5 times; TOF, times higher than 1-benzylnicotinamide ([4]; in water vs 1-benzylnicotinamide in THF/water): about 2.5 times
